Data reported in ChEMBL document CHEMBL1201862, “PubChem BioAssay data set” (2004).
Calls of active or inactive are those of the source.

Assays:
[1] = biological target: Phospholipase A2 (Homo sapiens, UniProt P04054); type: functional;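 note: confirmatory dose-response counterscreen on phospholipase A2, testing hits that came from an ultra-high-throughput screen for ATG4B inhibitors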
[2] = biological target: T1, Replicative DNA helicase DnaB (Mycobacterium tuberculosis, UniProt P9WMR3); assay: DnaB intein splicing inhibitors, dose response, biochemical, cell-free fluorescence (AID 449749); type: functional
T1 sequence (P9WMR3 whole entry): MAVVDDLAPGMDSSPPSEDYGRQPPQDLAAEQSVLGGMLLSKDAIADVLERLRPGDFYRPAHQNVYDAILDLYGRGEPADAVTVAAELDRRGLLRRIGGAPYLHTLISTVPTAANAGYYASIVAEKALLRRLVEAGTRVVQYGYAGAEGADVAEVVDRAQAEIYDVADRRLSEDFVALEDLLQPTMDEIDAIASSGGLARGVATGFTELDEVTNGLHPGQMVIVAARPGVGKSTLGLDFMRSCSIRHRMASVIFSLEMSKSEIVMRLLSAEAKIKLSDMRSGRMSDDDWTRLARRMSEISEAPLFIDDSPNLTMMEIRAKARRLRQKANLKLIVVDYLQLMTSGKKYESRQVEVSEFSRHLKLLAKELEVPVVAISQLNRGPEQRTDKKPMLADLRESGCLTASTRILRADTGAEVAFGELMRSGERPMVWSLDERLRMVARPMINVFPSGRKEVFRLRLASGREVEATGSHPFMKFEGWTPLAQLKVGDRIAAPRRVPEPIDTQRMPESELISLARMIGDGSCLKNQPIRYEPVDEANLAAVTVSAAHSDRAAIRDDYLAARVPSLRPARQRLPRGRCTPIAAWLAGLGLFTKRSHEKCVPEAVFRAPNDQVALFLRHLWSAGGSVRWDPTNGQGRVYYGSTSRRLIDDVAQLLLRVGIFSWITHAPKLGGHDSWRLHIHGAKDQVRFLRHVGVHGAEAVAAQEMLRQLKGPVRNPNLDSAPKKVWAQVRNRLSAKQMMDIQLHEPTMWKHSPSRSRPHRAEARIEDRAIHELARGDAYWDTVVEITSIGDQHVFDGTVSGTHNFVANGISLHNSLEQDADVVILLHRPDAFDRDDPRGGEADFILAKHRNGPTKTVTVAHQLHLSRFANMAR

[3] = biological target: DNA (cytosine-5)-methyltransferase 1 (Homo sapiens, UniProt P26358); assay: DNMT1 methyltransferase inhibitors, confirmation, biochemical, fluorescent molecular beacon (AID 602386); type: functional
[4] = biological target: Cysteine protease ATG4B (Homo sapiens, UniProt Q9Y4P1); type: functional;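 note: Fluorescence-based dose-response confirmation assay measuring inhibition of ATG4B activity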
[5] = biological target: Genome polyprotein (dengue virus type 2, UniProt P29990); assay: Dengue-2 NS5 methyltransferase inhibitors, primary screen, biochemical, confirmation dose response (AID 588689); type: functional
[6] = biological target: T2, Protein RecA (Mycobacterium tuberculosis, UniProt P9WHJ3); assay: Fluorescence Cell-Free Homogeneous Dose Retest to Identify Inhibitors of RecA-Intein Splicing Activity. [Related pubchem assays (depositor defined):AID2097, AID2223, AID489010, AID492950]; type: functional
T2 sequence (P9WHJ3 whole entry): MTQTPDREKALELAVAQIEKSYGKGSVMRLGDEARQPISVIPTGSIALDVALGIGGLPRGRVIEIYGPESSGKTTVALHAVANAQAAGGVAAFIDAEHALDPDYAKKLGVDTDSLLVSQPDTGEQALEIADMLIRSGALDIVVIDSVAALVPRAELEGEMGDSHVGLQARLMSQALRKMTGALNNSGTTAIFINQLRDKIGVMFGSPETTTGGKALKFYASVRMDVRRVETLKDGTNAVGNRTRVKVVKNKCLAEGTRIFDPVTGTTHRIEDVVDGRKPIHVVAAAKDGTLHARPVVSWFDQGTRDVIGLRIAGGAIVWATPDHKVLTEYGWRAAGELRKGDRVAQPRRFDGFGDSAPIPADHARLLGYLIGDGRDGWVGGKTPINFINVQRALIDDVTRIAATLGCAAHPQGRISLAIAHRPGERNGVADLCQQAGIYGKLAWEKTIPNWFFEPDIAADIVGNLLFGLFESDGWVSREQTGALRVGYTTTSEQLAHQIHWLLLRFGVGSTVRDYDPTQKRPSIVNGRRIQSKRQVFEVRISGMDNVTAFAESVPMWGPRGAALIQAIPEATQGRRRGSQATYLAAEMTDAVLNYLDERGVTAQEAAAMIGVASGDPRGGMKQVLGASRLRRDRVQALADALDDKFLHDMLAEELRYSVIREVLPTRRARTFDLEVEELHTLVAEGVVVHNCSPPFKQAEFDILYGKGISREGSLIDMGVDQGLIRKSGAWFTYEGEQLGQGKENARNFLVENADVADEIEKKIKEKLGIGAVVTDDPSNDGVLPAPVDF

[7] = growth suppression of PTEN-null colon cells, dose response, cell-based, HCT116 PTEN knockout (AID 1047); type: functional;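 note: HCT116 colon tumor cells with PTEN knocked out; cells exposed to compound for 60 hours before readout; potency for loss of cell viability measured by luminescence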
[8] = cytotoxicity toward NIH3T3 fibroblasts, dose response, counter-screen, cell-based, ATP luminescence, mouse fibroblasts (AID 2010); type: functional;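 note: cells exposed to compound for about 90 hours before reading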
[9] = biological target: T3, Streptokinase A (Streptococcus pyogenes serotype M1, UniProt P10520); assay: S. pyogenes streptokinase expression inhibitors, potency, dose response, plasminogen activation absorbance, OD405 (AID 1914); type: functional, Streptococcus pyogenes M1 GAS;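 note: secreted streptokinase activity via plasminogen activation per viability signal from cell pellet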
T3 sequence (P10520 whole entry): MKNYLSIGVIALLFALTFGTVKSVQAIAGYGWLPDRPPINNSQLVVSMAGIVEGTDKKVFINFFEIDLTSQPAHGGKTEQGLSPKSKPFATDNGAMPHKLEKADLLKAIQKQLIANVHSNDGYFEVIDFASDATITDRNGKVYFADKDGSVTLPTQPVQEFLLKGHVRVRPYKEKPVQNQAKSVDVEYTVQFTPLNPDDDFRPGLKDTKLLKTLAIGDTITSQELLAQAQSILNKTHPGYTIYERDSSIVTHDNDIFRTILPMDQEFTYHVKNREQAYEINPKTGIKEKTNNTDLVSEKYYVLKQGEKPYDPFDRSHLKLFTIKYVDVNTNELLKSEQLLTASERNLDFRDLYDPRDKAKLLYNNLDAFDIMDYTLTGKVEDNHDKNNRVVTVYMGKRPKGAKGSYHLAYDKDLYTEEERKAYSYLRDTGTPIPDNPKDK

[10] = test system: H4; assay: Inhibitors of Prion Protein 5' UTR mRNA Measured in Cell-Based System Using Plate Reader - 2078-01_Inhibitor_Dose_DryPowder_Activity. [Related pubchem assays (depositor defined):AID488894]; type: functional; settings: Homo sapiens
[11] = test system: Streptococcus; assay: Group A Streptococcus viability loss, dose response, counter-screen for streptokinase expression inhibitor project, luminescence, BacTiterGlo (AID 1915); type: functional, organism-based;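 note: potency for reduction of bacterial viability or growth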
[12] = biological target: Cytochrome P450 2C19 (Homo sapiens, UniProt P33261); assay: Cytochrome panel assay with activity outcomes. Panel member name: p450-cyp2c19 Compounds with AC50 equal or less than 10 uM are considered active; type: functional; settings: read-out: AC50
[13] = biological target: Luciferin 4-monooxygenase (Photinus pyralis, UniProt P08659); assay: Counter Screen for Luciferase-based Assay Positives. [Related pubchem assays: 620, 618, 411 ]
[14] = Vero E6 cell cytotoxicity, dose response, cytotoxicity control for non-replicating M. tuberculosis project, secondary assay (AID 492998); type: functional, VeroE6; settings: Vero C1008
[15] = test system: HT-1080; assay: cytotoxicity in HT1080 fibrosarcoma cells, cell-based, fluorescence readout (AID 620); type: functional; settings: Homo sapiens
[16] = test system: H4; assay: inhibitors of control reporter signal in H4 cells – cell-based, plate reader, dry powder samples, counter-screen for prion reporter project, dose response (AID 540255); type: functional; settings: Homo sapiens
[17] = inhibitors of intracellular T. cruzi replication, confirmation, NIH3T3 host cells, beta-gal luminescence (AID 2044); type: functional, cell-based;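 note: intracellular parasites grown in NIH/3T3 mouse fibroblasts as host cells; luminescent beta-galactosidase reporter signal from transgenic T. cruzi replicating inside host cells; inhibitors lower the luminescence signal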
[18] = THP-1 cell cytotoxicity, dose response, cytotoxicity control for non-replicating M. tuberculosis project (AID 489025); type: functional
[19] = biological target: T4, Microphthalmia-associated transcription factor (Homo sapiens, UniProt O75030); assay: TRPM1 promoter luciferase signal decrease, dose response, MITF inhibitor project, cell-based, SK-MEL-5, cherry-picked, set 3 (AID 493073); type: functional
T4 sequence (O75030 whole entry): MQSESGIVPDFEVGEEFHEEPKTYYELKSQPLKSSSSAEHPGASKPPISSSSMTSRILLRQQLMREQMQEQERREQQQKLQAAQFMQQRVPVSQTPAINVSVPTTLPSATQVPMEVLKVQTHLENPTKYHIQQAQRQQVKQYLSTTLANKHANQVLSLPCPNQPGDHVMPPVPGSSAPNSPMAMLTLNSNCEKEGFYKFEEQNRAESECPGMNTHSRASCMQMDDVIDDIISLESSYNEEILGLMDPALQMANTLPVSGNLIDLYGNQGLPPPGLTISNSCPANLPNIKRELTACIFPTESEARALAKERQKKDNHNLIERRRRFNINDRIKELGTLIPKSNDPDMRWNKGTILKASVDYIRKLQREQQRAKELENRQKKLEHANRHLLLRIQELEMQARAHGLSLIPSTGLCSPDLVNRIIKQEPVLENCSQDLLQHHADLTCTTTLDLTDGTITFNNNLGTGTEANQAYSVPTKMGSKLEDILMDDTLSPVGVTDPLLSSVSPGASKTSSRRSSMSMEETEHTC

[20] = cytotoxicity in HEK-293T cells, dose response, cytotoxicity control for TCR NF-kB inhibitor project, luminescence, T-cell screen hits (AID 489026); type: functional, cell-based;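 note: cells exposed to compound about 14 hours before the viability readout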
[21] = test system: H4; assay: Amyloid Precursor 5' UTR neuroblastoma cell reporter line Measured in Cell-Based System Using Plate Reader - 2078-04_Inhibitor_Dose_DryPowder_Activity. [Related pubchem assays (depositor defined):AID488894]; type: functional; settings: Homo sapiens
[22] = biological target: T5, Heat shock factor protein 1 (Mus musculus, UniProt P38532); assay: inhibition of MG132-induced HSE-luciferase signal, confirmation, cell-based, NIH3T3, luminescence, dose retest (AID 2382); type: functional;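 note: NIH3T3 fibroblasts with HSF1-driven luciferase reporter stressed by proteasome inhibitor MG132; luminescence from HSF1-driven luciferase expression after 8 hours of MG132 stress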
T5 sequence (P38532 whole entry): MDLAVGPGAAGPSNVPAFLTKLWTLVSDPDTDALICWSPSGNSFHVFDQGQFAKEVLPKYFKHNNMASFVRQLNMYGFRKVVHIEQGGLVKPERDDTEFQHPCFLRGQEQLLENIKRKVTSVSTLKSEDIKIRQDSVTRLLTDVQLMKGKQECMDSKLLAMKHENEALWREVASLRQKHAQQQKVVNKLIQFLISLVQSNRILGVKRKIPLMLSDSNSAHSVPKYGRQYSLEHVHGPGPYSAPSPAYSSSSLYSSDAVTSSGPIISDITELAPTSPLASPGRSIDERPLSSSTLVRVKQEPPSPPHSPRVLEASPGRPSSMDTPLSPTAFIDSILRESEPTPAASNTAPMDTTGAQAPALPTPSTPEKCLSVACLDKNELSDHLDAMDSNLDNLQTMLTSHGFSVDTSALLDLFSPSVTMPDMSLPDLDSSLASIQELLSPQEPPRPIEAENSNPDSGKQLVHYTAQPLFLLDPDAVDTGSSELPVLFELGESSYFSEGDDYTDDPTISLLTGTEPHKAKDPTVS

[23] = biological target: T6, Estrogen receptor (Homo sapiens, UniProt P03372);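 note: potency for inhibiting coactivator peptide recruitment to the receptor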
T6 sequence (P03372 whole entry): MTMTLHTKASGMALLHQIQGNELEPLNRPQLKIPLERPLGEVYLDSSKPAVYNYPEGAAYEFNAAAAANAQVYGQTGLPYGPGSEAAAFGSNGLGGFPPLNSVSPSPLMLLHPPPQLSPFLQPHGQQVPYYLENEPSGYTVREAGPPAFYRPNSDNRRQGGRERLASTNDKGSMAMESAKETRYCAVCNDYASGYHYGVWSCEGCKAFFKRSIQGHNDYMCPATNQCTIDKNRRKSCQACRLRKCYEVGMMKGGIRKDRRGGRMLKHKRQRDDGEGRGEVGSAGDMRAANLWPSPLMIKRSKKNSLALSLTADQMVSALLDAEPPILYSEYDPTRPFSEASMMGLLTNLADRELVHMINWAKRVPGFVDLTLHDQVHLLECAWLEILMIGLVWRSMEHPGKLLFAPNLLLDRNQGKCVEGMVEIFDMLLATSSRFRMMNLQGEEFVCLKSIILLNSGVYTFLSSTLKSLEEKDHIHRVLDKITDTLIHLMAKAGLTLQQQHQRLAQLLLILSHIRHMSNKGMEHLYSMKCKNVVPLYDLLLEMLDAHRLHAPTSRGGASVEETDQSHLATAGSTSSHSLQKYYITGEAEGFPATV

[24] = growth suppression of beta-catenin-knockout colon cells, dose response, cell-based, HCT116, human colon tumor (AID 1045); type: functional;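 note: HCT116 colon tumor cells with beta catenin knocked out; cells exposed to compound for 60 hours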
[25] = test system: Streptococcus sp. 'group A'; assay: growth inhibition of control SK(-) GAS strain, dose response, counter-screen for streptokinase expression inhibitor project, luminescence, kanamycin, BacTiterGlo, confirmation (AID 1900); type: functional, organism-based
[26] = biological target: Cytochrome P450 2D6 (Homo sapiens, UniProt P10635);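 note: CYP2D6 member of a cytochrome P450 panel assay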
[27] = cells; type: functional

Cysteine protease ATG4B, sequence (Q9Y4P1 whole entry): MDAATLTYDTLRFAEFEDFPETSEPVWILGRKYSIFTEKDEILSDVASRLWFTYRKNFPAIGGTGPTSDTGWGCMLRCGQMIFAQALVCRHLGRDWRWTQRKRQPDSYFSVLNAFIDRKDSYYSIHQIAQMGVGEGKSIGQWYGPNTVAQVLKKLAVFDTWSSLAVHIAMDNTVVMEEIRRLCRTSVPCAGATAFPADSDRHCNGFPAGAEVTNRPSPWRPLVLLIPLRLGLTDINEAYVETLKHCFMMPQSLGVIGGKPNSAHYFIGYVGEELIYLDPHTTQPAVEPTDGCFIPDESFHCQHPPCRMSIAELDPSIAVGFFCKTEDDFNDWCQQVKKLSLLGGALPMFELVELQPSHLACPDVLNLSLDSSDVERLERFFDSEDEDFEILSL
Luciferin 4-monooxygenase, sequence (P08659 whole entry): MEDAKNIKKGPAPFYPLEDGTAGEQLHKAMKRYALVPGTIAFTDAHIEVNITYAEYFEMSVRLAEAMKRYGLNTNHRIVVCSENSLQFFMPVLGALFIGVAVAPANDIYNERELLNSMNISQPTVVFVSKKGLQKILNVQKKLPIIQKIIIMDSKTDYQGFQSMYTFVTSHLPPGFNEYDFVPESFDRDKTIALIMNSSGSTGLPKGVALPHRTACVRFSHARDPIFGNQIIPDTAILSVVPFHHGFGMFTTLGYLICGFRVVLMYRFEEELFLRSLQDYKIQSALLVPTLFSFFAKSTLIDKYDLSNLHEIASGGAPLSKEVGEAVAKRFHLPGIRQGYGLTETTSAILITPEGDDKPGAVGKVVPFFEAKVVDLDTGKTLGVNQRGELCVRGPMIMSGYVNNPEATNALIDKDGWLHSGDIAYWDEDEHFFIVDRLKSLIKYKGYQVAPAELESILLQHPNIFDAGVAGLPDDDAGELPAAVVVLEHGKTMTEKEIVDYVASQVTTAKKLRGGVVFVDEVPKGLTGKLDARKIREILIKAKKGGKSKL
Phospholipase A2, sequence (P04054 whole entry): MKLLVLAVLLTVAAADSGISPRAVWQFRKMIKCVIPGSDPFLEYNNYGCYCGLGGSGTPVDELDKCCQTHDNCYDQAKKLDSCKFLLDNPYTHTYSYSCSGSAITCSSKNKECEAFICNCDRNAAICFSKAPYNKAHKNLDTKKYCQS
Genome polyprotein, sequence (P29990 2492-3391 limits assumed): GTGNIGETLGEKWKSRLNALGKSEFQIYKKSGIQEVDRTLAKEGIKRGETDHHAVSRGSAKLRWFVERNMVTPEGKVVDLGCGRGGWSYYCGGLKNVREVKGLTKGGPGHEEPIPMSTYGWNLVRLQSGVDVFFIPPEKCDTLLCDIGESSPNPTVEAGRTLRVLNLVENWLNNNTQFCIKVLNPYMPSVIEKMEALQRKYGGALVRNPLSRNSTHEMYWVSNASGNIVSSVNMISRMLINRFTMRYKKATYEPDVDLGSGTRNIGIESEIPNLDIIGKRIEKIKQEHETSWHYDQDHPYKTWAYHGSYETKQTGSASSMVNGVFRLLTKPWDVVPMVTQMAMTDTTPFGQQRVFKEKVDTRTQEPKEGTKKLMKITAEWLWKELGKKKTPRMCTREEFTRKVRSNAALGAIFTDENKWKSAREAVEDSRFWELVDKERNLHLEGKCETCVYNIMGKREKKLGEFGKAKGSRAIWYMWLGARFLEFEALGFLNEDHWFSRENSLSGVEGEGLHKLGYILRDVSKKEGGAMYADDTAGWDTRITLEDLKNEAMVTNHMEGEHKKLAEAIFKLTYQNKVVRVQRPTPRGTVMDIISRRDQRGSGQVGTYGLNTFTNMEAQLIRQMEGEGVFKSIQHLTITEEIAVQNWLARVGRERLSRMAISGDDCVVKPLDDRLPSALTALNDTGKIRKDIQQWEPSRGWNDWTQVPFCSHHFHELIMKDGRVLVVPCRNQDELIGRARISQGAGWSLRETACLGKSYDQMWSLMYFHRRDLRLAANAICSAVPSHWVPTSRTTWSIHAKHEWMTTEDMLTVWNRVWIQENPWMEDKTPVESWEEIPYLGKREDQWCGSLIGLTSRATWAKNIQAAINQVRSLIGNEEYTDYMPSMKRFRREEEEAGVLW
Cytochrome P450 2D6, sequence (P10635 whole entry): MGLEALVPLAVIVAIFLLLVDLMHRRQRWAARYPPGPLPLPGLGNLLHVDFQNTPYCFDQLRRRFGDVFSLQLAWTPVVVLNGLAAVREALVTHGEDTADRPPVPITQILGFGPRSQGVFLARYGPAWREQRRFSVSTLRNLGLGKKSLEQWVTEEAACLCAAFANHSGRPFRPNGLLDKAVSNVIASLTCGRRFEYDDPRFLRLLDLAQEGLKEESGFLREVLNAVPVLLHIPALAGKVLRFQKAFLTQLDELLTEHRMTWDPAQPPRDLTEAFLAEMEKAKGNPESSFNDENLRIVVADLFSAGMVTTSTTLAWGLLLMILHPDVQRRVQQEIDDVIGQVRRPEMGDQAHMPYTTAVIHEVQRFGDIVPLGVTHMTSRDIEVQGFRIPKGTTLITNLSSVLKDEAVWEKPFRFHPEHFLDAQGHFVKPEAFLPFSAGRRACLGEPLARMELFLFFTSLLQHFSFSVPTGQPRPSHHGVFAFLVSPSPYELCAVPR
DNA (cytosine-5)-methyltransferase 1, sequence (P26358 whole entry): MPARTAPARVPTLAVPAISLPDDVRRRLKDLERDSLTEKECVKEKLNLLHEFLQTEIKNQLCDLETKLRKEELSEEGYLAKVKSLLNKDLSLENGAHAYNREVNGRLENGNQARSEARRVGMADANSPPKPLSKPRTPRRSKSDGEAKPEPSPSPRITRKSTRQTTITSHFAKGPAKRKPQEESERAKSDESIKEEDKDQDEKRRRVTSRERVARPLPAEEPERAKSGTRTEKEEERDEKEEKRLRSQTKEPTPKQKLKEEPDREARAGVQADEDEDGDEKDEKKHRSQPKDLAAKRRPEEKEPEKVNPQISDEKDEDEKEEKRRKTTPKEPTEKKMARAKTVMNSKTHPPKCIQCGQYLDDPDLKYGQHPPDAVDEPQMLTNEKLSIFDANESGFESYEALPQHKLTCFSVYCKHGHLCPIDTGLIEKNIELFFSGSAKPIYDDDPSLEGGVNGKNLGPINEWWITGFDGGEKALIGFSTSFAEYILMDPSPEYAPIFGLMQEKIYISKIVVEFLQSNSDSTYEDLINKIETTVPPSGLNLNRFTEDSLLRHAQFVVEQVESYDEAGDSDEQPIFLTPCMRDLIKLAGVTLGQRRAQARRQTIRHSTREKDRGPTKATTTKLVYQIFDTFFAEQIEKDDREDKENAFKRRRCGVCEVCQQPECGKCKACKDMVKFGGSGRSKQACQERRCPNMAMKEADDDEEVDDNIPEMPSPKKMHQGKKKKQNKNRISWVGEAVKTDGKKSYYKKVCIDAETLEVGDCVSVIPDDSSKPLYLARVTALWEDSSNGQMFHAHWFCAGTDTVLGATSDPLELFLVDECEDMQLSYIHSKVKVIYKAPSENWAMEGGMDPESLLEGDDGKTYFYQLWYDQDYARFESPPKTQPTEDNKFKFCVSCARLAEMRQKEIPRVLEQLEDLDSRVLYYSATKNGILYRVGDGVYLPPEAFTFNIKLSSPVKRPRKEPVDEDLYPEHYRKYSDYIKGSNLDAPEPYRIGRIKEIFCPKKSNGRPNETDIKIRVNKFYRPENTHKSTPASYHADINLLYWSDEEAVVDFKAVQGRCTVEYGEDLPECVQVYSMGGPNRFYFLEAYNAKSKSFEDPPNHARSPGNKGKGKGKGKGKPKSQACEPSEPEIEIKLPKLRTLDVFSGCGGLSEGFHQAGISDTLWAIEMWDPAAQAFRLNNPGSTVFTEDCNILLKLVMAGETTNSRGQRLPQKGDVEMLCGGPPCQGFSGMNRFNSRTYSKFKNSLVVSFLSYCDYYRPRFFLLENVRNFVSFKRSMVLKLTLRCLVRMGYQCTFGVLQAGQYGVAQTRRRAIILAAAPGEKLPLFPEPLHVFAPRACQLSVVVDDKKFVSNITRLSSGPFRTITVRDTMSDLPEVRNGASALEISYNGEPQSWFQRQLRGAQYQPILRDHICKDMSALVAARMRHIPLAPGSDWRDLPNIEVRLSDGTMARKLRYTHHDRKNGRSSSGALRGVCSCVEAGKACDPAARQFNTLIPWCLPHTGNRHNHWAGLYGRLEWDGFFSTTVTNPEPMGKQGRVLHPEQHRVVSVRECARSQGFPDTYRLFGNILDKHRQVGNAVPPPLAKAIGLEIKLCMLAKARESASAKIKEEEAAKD
Cytochrome P450 2C19, sequence (P33261 whole entry): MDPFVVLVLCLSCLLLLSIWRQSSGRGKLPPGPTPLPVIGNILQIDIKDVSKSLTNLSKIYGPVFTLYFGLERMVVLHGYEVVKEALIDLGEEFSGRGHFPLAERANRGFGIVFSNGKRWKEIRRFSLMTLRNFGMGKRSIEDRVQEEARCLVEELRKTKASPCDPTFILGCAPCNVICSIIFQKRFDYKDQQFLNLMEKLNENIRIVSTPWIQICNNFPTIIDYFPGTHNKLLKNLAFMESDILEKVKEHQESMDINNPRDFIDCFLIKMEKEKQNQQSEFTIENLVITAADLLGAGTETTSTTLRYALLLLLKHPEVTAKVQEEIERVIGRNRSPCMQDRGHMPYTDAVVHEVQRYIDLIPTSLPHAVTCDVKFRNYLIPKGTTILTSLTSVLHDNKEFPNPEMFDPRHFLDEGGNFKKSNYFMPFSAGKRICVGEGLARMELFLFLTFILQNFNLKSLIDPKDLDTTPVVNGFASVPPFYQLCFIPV

C/C(=C/CCC(C)[C@H]1CC[C@@]2(C)C3=C(CC[C@]12C)[C@@]1(C)CCC(=O)C(C)(C)[C@@H]1CC3)C(=O)O (some centres not stated)
IC50 [1]: 2.04 µM (active)
AC50 [2]: 2.12 µM (active)
IC50 [3]: 5.93 µM (active)
IC50 [4]: 5.45 µM (active)
IC50 [5]: 47.9 µM (active)
EC50 [6]: 5.88 µM (active)

Cc1ccc(C(=O)N/N=C/c2ccc([N+](=O)[O-])s2)cc1
EC50 [7]: 3.05 µM (active)
EC50 [8]: > 30 µM (not active)
EC50 [9]: > 150 µM (not active)
AC50 [10]: 0.875 µM (active)
EC50 [11]: 14.3 µM (active)
AC50 [12]: 39.8 µM (inconclusive)
EC50 [13]: 3.5 µM (active)
CC50 [14]: 11.5 µM (active)
EC50 [15]: > 50 µM (not active)
AC50 [16]: 3.18 µM (active)
EC50 [17]: 0.72 µM (active)
CC50 [18]: 12.2 µM (active)
AC50 [19]: 2.2 µM (active)
IC50 [20]: > 80 µM (inactive)
AC50 [21]: 3 µM (active)
EC50 [22]: 0.324 µM (active)
IC50 [23]: 21.1 µM (active)
EC50 [24]: 3.5 µM (active)
EC50 [25]: 5.16 µM (active)
AC50 [26]: 15.8 µM (inconclusive)
IC50 [27]: 5.2 µM (active)
